# Data: patent US11066414B2, “Cot modulators and methods of use thereof” (Gilead Sciences, Inc., priority 2015, dated 2021)
# Target: Human Cot (Homo sapiens (Human), UniProt P41279)
# Experiment: High Throughput Cot Biochemical Assay
# Conditions: IC50 HTRF, Cot HTRF (TR-FRET KinEASE) biochemical assay, 400 μM ATP
# Sequence of Human Cot (P41279 30-397): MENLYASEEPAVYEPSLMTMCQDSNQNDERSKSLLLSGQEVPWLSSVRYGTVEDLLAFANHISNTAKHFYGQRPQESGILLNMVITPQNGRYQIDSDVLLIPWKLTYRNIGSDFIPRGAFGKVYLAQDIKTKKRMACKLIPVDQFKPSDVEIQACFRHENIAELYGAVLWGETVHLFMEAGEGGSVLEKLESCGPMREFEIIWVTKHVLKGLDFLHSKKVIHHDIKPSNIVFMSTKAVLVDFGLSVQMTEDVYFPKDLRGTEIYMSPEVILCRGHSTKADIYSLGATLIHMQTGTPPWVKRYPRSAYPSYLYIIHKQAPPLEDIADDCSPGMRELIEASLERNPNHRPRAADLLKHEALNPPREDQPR
row,IC50 [nM],Structure (SMILES)
1,3,"CC(C)(CNc1c(C#N)cnc2c(C#N)cc(N[C@H](c3cn(C4(C(F)F)CC4)nn3)c3ccc(F)c4ncccc34)cc12)C(F)(F)F [Example 815, (S)-6-(((1-{1-(difluoromethyl)-cyclopropyl)-1H-1,2,3-triazol-4-yl)(8-fluoroquinolin-5-yl)methyl)amino)-4-((3,3,3-trifluoro-2,2-dimethylpropyl)amino)quinoline-3,8-dicarbonitrile]"
2,2,"Cc1nc(F)ccc1[C@H](Nc1cc(Cl)c2ncc(C#N)c(NCC(C)(C)C(F)(F)F)c2c1)c1nnn(C2CC2)c1F [Example 958, (S)-8-chloro-6-(((1-cyclopropyl-5-fluoro-1H-1,2,3-triazol-4-yl)(6-fluoro-2-methylpyridin-3-yl)methyl)amino)-4-((3,3,3-trifluoro-2,2-dimethylpropyl)amino)quinoline-3-carbonitrile]"
3,1,"CC(C)(CNc1c(C#N)cnc2c(C#N)cc(N[C@H](c3cn(C45CC(C4)C5)nn3)c3ccc(F)c4ncccc34)cc12)C(F)(F)F [Example 816, (S)-6-(((1-(bicyclo[1.1.1]pentan-1-yl)-1H-1,2,3-triazol-4-yl)(8-fluoroquinolin-5-yl)methyl)amino)-4-((3,3,3-trifluoro-2,2-dimethylpropyl)amino)quinoline-3,8-dicarbonitrile]"
4,5,"Cn1ccc2c([C@H](Nc3cc(C#N)c4ncc(C#N)c(NCC(C)(C)C)c4c3)c3cn(C4(C(F)F)CC4)nn3)ccnc21 [Example 873, (S)-6-(((1-(1-(difluoromethyl)cyclopropyl)-1H-1,2,3-triazol-4-yl)(1-methyl-1H-pyrrolo[2,3-b]pyridin-4-yl)methyl)amino)-4-(neopentylamino)quinoline-3,8-dicarbonitrile]"

# Same assay, conditions: IC50 HTRF, Cot HTRF (TR-FRET) biochemical assay
row,IC50 [nM],Structure (SMILES)
1,3,"Cn1cnc2cccc([C@H](Nc3cc(Cl)c4ncc(C#N)c(NCC(C)(C)C)c4c3)c3cn(C4(C(F)F)CC4)nn3)c21 [Example 499, (S)-8-chloro-6-(((1-(1-(difluoromethyl)-cyclopropyl)-1H-1,2,3-triazol-4-yl)(1-methyl-1H-benzo[d]imidazol-7-yl)methyl)amino)-4-(neopentylamino)-quinoline-3-carbonitrile]"
2,9,"CC(C)(C)CNc1c(C#N)cnc2c(Cl)cc(N[C@H](c3cn(C4(C(F)(F)F)CC4)nn3)c3ccc(F)c4ncccc34)cc12 [Example 617, (S)-8-chloro-6-(((8-fluoroquinolin-5-yl)(1-(1-(trifluoromethyl)cyclopropyl)-1H-1,2,3-triazol-4-yl)methyl)amino)-4-(neopentylamino)quinoline-3-carbonitrile]"
3,2,"N#Cc1cnc2c(Cl)cc(N[C@@H](c3cscn3)c3cn(CCO)nn3)cc2c1Nc1ccc(F)c(Cl)c1 [Example 356, (S)-8-chloro-4-((3-chloro-4-fluorophenyl)amino)-6-(((1-(2-hydroxyethyl)-1H-1,2,3-triazol-4-yl)(thiazol-4-yl)methyl)amino)-quinoline-3-carbonitrile]"
4,60,"N#Cc1cnc2c(Cl)cc(N[C@H](c3cn(C4COC4)nn3)c3cc(Br)cnc3Cl)cc2c1Nc1ccc(F)c(Cl)c1 [Example 320, (S)-6-(((5-bromo-2-chloropyridin-3-yl)(1-(oxetan-3-yl)-1H-1,2,3-triazol-4-yl)methyl)amino)-8-chloro-4-((3-chloro-4-fluorophenyl)amino)quinoline-3-carbonitrile]"
5,46,"Cn1cc(C(Nc2cc(Cl)c3ncc(C#N)c(Nc4ccc(F)c(Cl)c4)c3c2)c2cn(C3CCNCC3)nn2)nn1 (centres unmarked) [Example 397, 8-chloro-4-((3-chloro-4-fluoro-phenyl)amino)-6-(((1-methyl-1H-1,2,3-triazol-4-yl)(1-(piperidin-4-yl)-1H-1,2,3-triazol-4-yl)methyl)amino)-quinoline-3-carbonitrile]"
6,4,"Cc1nc(F)ccc1[C@H](Nc1cc(F)c2ncc(C#N)c(NCC(C)(C)C)c2c1)c1cn(C2(C(F)F)CC2)nn1 [Example 514, (S)-6-(((1-(1-(difluoromethyl)cyclopropyl)-1H-1,2,3-triazol-4-yl)(6-fluoro-2-methylpyridin-3-yl)methyl)amino)-8-fluoro-4-(neopentylamino)quinoline-3-carbonitrile]"
7,119,"N#Cc1cnc2c(Cl)cc(NC(c3cccnc3)c3cn([C@@H]4CCN(C(=O)OCc5ccccc5)C4)nn3)cc2c1Nc1ccc(F)c(Cl)c1 (stereo partly drawn) [Example 400, benzyl (3R)-3-(4-(((8-chloro-4-((3-chloro-4-fluorophenyl)amino)-3-cyanoquinolin-6-yl)amino)(pyridin-3-yl)methyl)-1H-1,2,3-triazol-1-yl)pyrrolidine-1-carboxylate]"
8,2,"Cn1ccc2c([C@H](Nc3cc(Cl)c4ncc(C#N)c(NCC(C)(C)C(F)(F)F)c4c3)c3cn(C45CC(C4)C5)nn3)cccc2c1=O [Example 785, (S)-6-(((1-(bicyclo[1.1.1]pentan-1-yl)-1H-1,2,3-triazol-4-yl)(2-methyl-1-oxo-1,2-dihydroisoquinolin-5-yl)methyl)amino)-8-chloro-4-((3,3,3-trifluoro-2,2-dimethylpropyl)amino)quinoline-3-carbonitrile]"
9,36,"N#Cc1cnc2c(Cl)cc(N[C@H](c3cn(C4CCNCC4)nn3)c3ccc(Cl)s3)cc2c1Nc1ccc(F)c(Cl)c1 [Example 386, (R)-8-chloro-4-((3-chloro-4-fluoro-phenyl)amino)-6-(((5-chlorothiophen-2-yl)(1-(piperidin-4-yl)-1H-1,2,3-triazol-4-yl)methyl)amino)quinoline-3-carbonitrile]"
10,3,"CCc1ncccc1[C@H](Nc1cc(Cl)c2ncc(C#N)c(NCC(C)(C)C)c2c1)c1cn(C2(C(F)F)CC2)nn1 [Example 604, (S)-8-chloro-6-(((1-(1-(difluoromethyl)cyclo-propyl)-1H-1,2,3-triazol-4-yl)(2-ethylpyridin-3-yl)methyl)amino)-4-(neopentylamino)-quinoline-3-carbonitrile]"
11,2,"CC(C)(C)CNc1c(C#N)cnc2c(Cl)cc(N[C@H](c3cn(C4(C(F)F)CC4)nn3)c3cccc4c3CNC4)cc12 [Example 445, (S)-8-chloro-6-(((1-(1-(difluoromethyl)-cyclopropyl)-1H-1,2,3-triazol-4-yl)(isoindolin-4-yl)methyl)amino)-4-(neopentylamino)quinoline-3-carbonitrile]"
12,2,"CC(C)(C)CNc1c(C#N)cnc2c(C#N)cc(N[C@H](c3cn(C4CC4)nn3)c3cccc4ncccc34)cc12 [Example 467, (S)-6-(((1-cyclopropyl-1H-1,2,3-triazol-4-yl)(quinolin-5-yl)methyl)amino)-4-(neopentylamino)quinoline-3,8-dicarbonitrile]"
13,4,"CC(C)(C)CNc1c(C#N)cnc2c(Cl)cc(N[C@H](c3cn(C4(C(F)F)CC4)nn3)c3ccc(F)c4ncccc34)cc12 [Example 653, (S)-8-chloro-6-(((1-(1-(difluoromethyl)cyclopropyl)-1H-1,2,3-triazol-4-yl)(8-fluoroquinolin-5-yl)methyl)amino)-4-(neopentylamino)quinoline-3-carbonitrile]"
14,2,"CC(C)(C)CNc1c(C#N)cnc2c(C#N)cc(N[C@H](c3cn(C4(C(F)F)CC4)nn3)c3cccc4ncsc34)cc12 [Example 424, (S)-6-((benzo[d]thiazol-7-yl(1-(1-(difluoromethyl)cyclopropyl)-1H-1,2,3-triazol-4-yl)methyl)amino)-4-(neopentylamino)quinoline-3,8-dicarbonitrile]"
15,4,"Cn1cc(C(Nc2cc(Cl)c3ncc(C#N)c(Nc4ccc(F)c(Cl)c4)c3c2)c2cccnc2)nn1 (centres unmarked) [Example 395, 8-chloro-4-((3-chloro-4-fluoro-phenyl)amino)-6-(((1-methyl-1H-1,2,3-triazol-4-yl)(pyridin-3-yl)methyl)amino)quinoline-3-carbonitrile]"
16,1,"Cc1nc(F)ccc1[C@H](Nc1cc(Cl)c2ncc(C#N)c(NCC(C)(C)C)c2c1)c1cn(C2(C(N)=O)CCC2)nn1 [Example 478, (S)-1-(4-(((8-chloro-3-cyano-4-(neopentylamino)quinolin-6-yl)amino)(6-fluoro-2-methylpyridin-3-yl)methyl)-1H-1,2,3-triazol-1-yl)cyclobutane-1-carboxamide]"
17,3,"Cc1ncccc1[C@H](Nc1cc(Cl)c2ncc(C#N)c(Nc3ccc(F)c(Cl)c3)c2c1)c1cn(C(C)C)nn1 [Example 282, (S)-8-chloro-4-((3-chloro-4-fluorophenyl)amino)-6-(((1-isopropyl-1H-1,2,3-triazol-4-yl)(2-methylpyridin-3-yl)methyl)amino)-quinoline-3-carboni trile]"
18,3,"CCN1CCC(n2cc([C@@H](Nc3cc(Cl)c4ncc(C#N)c(Nc5ccc(F)c(Cl)c5)c4c3)c3ccsc3)nn2)CC1 [Example 392, (S)-8-chloro-4-((3-chloro-4-fluoro-phenyl)amino)-6-(((1-(1-ethylpiperidin-4-yl)-1H-1,2,3-triazol-4-yl)(thiophen-3-yl)methyl)amino)quinoline-3-carbonitrile]"
19,4,"CCN1CCc2c([C@H](Nc3cc(Cl)c4ncc(C#N)c(Nc5ccc(F)c(Cl)c5)c4c3)c3c[nH]nn3)csc2C1 [Example 270, (S)-8-chloro-4-((3-chloro-4-fluoro-phenyl)amino)-6-(((6-ethyl-4,5,6,7-tetrahydrothieno[2,3-c]pyridin-3-yl)(1H-1,2,3-triazol-4-yl)methyl)-amino)quinoline-3-carbonitrile]"

# Same assay, conditions: read-out: IC50 HTRF; Cot HTRF (TR-FRET) biochemical assay
row,IC50 [nM],Structure (SMILES)
1,2,Cc1n[nH]c2cccc([C@H](Nc3cc(C#N)c4ncc(C#N)c(NCC(C)(C)C)c4c3)c3cn(C4(C(F)F)CC4)nn3)c12 [Example 571]
2,504,"Cn1cc([C@H](Nc2cc(Cl)c3ncc(C#N)c(Nc4ccc(F)c(Cl)c4)c3c2)c2cccnc2)nn1 [Example 343, (R)-8-chloro-4-((3-chloro-4-fluorophenyl)amino)-6-(((1-methyl-1H-1,2,3-triazol-4-yl)(pyridin-3-yl)methyl)amino)quinoline-3-carbonitrile]"
3,2,CC(C)(C)CNc1c(C#N)cnc2c(C#N)cc(N[C@H](c3cn(C4(C5CC5)CC4)nn3)c3cccc4ncccc34)cc12 [Example 696]
